Results from patent publication US20220211750A1, “COMPOSITIONS AND METHODS USING A COMBINATION OF CALCIUM AND AT LEAST ONE OF OLEUROPEIN OR METABOLITE THEREOF” (SOCIETE DES PRODUITS NESTLE S.A., priority 2019, published 2022).

Tested on: C2C12-derived myotubes
Assay: Mitochondrial calcium rise (mitochondrial aequorin) in caffeine-stimulated C2C12-derived myotubes
Type: cell-based, mouse
Details: evoked by 5 mM caffeine, vs 0.5 mM calcium in the medium
From the text: To test the effect of Oleuropein, its metabolites and calcium supplementation/deficiency in living cells, the inventors measured mitochondrial calcium elevation in HeLa cells and in myotubes differentiated from both mouse C2C12 cells and human primary adult muscle cells. HeLa cells and C2C12 cells were purchased from ATCC. Human Skeletal Muscle Myoblasts (HSMM) were purchased from Lonza. HSMM were isolated from the upper arm or leg muscle tissue of normal donors and used after the second passage. HeLa cells were seeded in 96-well plates at a density of 50000 cells per well in minimal essential medium (DMEM, Gibco), high glucose, +10% fetal calf serum. C2C12 cells were seeded in 96-well plates at a density of 8000 cells per well in DMEM high glucose (Gibco)+10% fetal calf serum. Myotubes were differentiated from C2C12 cells by growing the cells in DMEM containing 2% horse serum, for 4 days. HSMM were seeded in 96-well plates at a density of 8000 cells per well in DMEM/F-12 (Gibco). […]
For treatment, compounds were directly added to the cell culture or myotubes cultures 2 hours before measurements. Luminescence was measured at the Cytation 3 cell imaging reader (Biotek) or at the FLIPR Tetra Aequorin (Molecular Devices). […] Custom module analysis based on Excel (Microsoft) and GhaphPad Prism 7.02 (GraphPad) software was used for quantification.

[Ca+2] [calcium]
integrated mitochondrial calcium rise, effect of extracellular calcium abundance (P<0.05, listed as Ca^2+): activates mitochondrial Ca^2+ elevation in a dose/response manner
integrated mitochondrial calcium rise, effect of extracellular calcium abundance (P<0.05, listed as Ca′): enhances mitochondrial Ca′ elevation in a dose/response manner
